Here are results for 2 compounds from US9498466B2, “Pyrrole inhibitors of S-nitrosoglutathione reductase as therapeutic agents” (Nivalis Therapeutics, Inc., priority 2008, dated 2016).

One experiment concerns OVA sensitized mice. The experiment in a line: GSNOR inhibition assay in an in vivo animal model: OVA mouse model of asthma, methacholine challenge, Penh. The note with it: 1 mg/kg, 10 mg/kg or 30 mg/kg intravenously at 24 hours prior. As to the method:
In an effort to determine if similar observations would manifest if GSNOR were inhibited pharmacologically by a GSNOR inhibitor, an OVA mouse model (i.e., the wild-type model of Que et al.) was used. In this study, OVA sensitized mice were administered 1 mg/kg, 10 mg/kg or 30 mg/kg of Compound 1 intravenously at 24 hours prior to being placed in a whole body plethysmograph (Buxco Research Systems, Wilmington, N.C.) and provided with fresh air.
Subject animals were then challenged with an aerosol of increasing dosages of the bronchoconstrictive agent methacholine, a pharmacologic agent commonly used in determining the degree of bronchial hyper-reactivity in experimental subjects. In this study mice were exposed to an increasing concentration of methacholine, each dose being presented for 3 minutes, during which time readings were taken. Doses of methacholine were 0 mg/ml, 5 mg/ml, 20 mg/ml, and 50 mg/ml. The degree of bronchial hyper-reactivity was measured as the ‘Enhanced Pause’ (Penh), a unit-less index of airway hyper-reactivity (Dohi et al., Lab Invest. 79(12):1559-1571, 1999).

Experiment [1] concerns mouse model of ovalbumin (OVA)-induced asthma. The experiment in a line: Experimental asthma model: pulmonary function testing (Penh) after MCh challenge. It is filed as in vivo. The note with it: read-out: area under the curve (AUC) for Penh response reported as percent of vehicle control.
Method: A mouse model of ovalbumin (OVA)-induced asthma was used to screen GSNOR inhibitors for efficacy against methacholine (MCh)-induced bronchoconstriction/airway hyper-reactivity. […] Efficacy of GSNOR inhibitors were assessed using a prophylactic protocol in which GSNOR inhibitors were administered prior to challenge with MCh. Bronchoconstriction in response to challenge with increasing doses of MCh was assessed using whole body plethysmography (Penh; Buxco). […] The effect of GSNOR inhibitors were compared to vehicles and to Combivent (inhaled; IH) as the positive control. […]
In vivo airway responsiveness to methacholine was measured 24 h after the last OVA challenge in conscious, freely moving, spontaneously breathing mice with whole body plethysmography using a Buxco chamber (Wilmington, N.C.). […] The degree of bronchoconstriction was expressed as enhanced pause (Penh), a calculated dimensionless value, which correlates with the measurement of airway resistance, impedance, and intrapleural pressure in the same mouse. Penh readings were taken and averaged for 4 min. after each nebulization challenge. Penh was calculated as follows: Penh enh=[(Te/Tr−1)×(PEF/PIF)], where Te is expiration time, Tr is relaxation time, PEF is peak expiratory flow, and PIF is peak inspiratory flow×0.67 coefficient. […]

Take `Cc1cc(C(N)=O)ccc1-n1c(CCC(=O)O)ccc1-c1ccc(-n2ccnc2)cc1` [Compound 1, 3-(5-(4-(1H-imidazol-1-yl)phenyl)-1-(4-carbamoyl-2-methylphenyl)-1H-pyrrol-2-yl)propanoic acid]: the “broncho-constrictive responses to methacholine (Penh) compared with vehicle-only dosed animals” value in the experiment with OVA sensitized mice is given as “lower broncho-constrictive responses”.

Turning to `Cc1cc(C(N)=O)ccc1-n1c(CCC(=O)O)ccc1-c1ccc(Br)cc1` [Compound 7, 3-(5-(4-bromophenyl)-1-(4-carbamoyl-2-methylphenyl)-1H-pyrrol-2-yl)propanoic acid], in experiment [1] (single IV dose of 0.1 mg/kg at 24 h prior to MCh), the response vs control in vivo at 0.1 mg/kg stood at 56.1 ± 2.2%. Moreover, the response vs control in vivo at 1 mg/kg in experiment [1] (single IV dose of 1 mg/kg at 24 h prior to MCh) was determined as 50.4 ± 3.7%.
